Measurements published in US20010044102A1, “ASSAYS AND REAGENTS FOR IDENTIFYING MODULATORS OF CDC25-MEDIATED MITOTIC ACTIVATION” (priority 1996, published 2001).

Columns and labels:
cdc25 = conditions: cited from earlier work
Val 5 cells = assay: Myc-driven apoptosis and DNA replication in MycER cells treated with cdc25A antisense oligonucleotide, scored by TUNEL; type: cell-based; conditions: MycER induced by β-estradiol, 0.1% serum, shift from 39 to 32° C., FIG. 5B
Experimental: Finally, to investigate whether induction of the cdc25A gene is essential for Myc-driven apoptosis, we incubated Val 5 cells after MycER induction by β-estradiol with an antisense cdc25A oligonucleotide. Following this incubation, cells were shifted from 39 to 32° C., activating wild type p53 function, which normally results in apoptosis (Wagner et al. (1994) Genes Dev. 8:2817-2830). A scrambled oligonucleotide with the same nucleotide content was used in control experiments. We observed that both apoptosis and DNA replication was inhibited by the treatment with the antisense, but not with scrambled (control) oligonucleotides (FIG. 5B).
Human cdc25A, B and C under control of CMV promoter and pCMV CD20 has been described (Galaktionov et al. (1995) Science 269:1575-1577). […] Apoptotic figures were scored 24 hours later upon microscopic investigation of the cultures based on CD20 staining, indicative of successful transfection (more than 2%, usually 8-10%), and visible morphological changes indicative of cell death (membrane blebbing, chromatin condensation, etc.). […] 48 hours after shifting to 0.1% serum, MycER fusion protein was induced by the addition of β-estradiol and cell incubation continued for another 24 hours, at which point cells were photographed and apoptosis was scored by TUNEL.

Row | Compound | cdc25 inhibitor (previously described in the literature) (cdc25) | DNA replication (Val 5 cells)
1 | CN1C2CC3C1C1C(C4=C(C(=O)C(N)=CC4=O)C(CO)N1C2C#N)N1CCOC31 (stereo not drawn) [dnacin A1] | cdc25 inhibitors | –
2 | CN1C2CC3C1C1C(C4=C(C(=O)C(N)=CC4=O)C(CO)N1C2O)N1CCOC31 (stereo not drawn) [dnacin B1] | cdc25 inhibitors | –
3 | scrambled oligonucleotide: scrambled oligonucleotide (GGTACCTTGACCCGGGCTCG) with the same nucleotide content, used as control (chemistry not given here) | – | not
